Experiments:
[1] = test system: Ctenocephalides felis; assay: Ctenocephalides felis - in vitro contact tests with adult cat fleas; assay type: in vivo; details: application rate 5 μg/cm^2 (=500 g/ha), after 48 h (dead or moribund)
Description: Ctenocephalides felis—In Vitro Contact Tests with Adult Cat Fleas
(§1) For the coating of the test tubes, 9 mg of active ingredient are first dissolved in 1 ml of acetone p.a. and then diluted to the desired concentration with acetone p.a. 250 μl of the solution are distributed homogeneously on the inner walls and base of a 25 ml test tube by turning and rocking on an orbital shaker (rocking rotation at 30 rpm for 2 h). With 900 ppm active ingredient solution and internal surface area 44.7 cm^2, given homogeneous distribution, an area-based dose of 5 μg/cm^2 is achieved.
After the solvent has evaporated off, the tubes are populated with 5-10 adult cat fleas (Ctenocephalides felis), sealed with a perforated plastic lid and incubated in a horizontal position at room temperature and ambient humidity. After 48 h, efficacy is determined. To this end, the test tubes are stood upright and the fleas are knocked to the base of the tube. Fleas which remain motionless at the base or move in an uncoordinated manner are considered to be dead or moribund.
100% efficacy means that all the fleas were dead or moribund. 0% efficacy means that no fleas were harmed.

[2] = test system: Boophilus microplus Parkhurst strain, SP-resistant; assay: Boophilus microplus - dip test; assay type: in vivo; details: application rate 100 ppm; dip of engorged adult female ticks; laying of fertile eggs, after 7 days
Description: Boophilus microplus—Dip Test
Test animals: cattle ticks (Boophilus microplus) Parkhurst strain, SP-resistant
(§2) Solvent: dimethyl sulphoxide
10 mg of active ingredient are dissolved in 0.5 ml of dimethyl sulphoxide. For the purpose of producing a suitable formulation, the active ingredient solution is diluted with water to the concentration desired in each case.
This active ingredient formulation is pipetted into tubes. 8-10 adult engorged female cattle ticks (Boophilus microplus) are transferred into a further tube with holes. The tube is immersed into the active ingredient formulation, and all the ticks are completely wetted. After the liquid has run out, the ticks are transferred on filter discs into plastic dishes and stored in a climate-controlled room.
Efficacy is assessed after 7 days by laying of fertile eggs. Eggs which are not visibly fertile are stored in a climate-controlled cabinet until the larvae hatch after about 42 days. An efficacy of 100% means that none of the ticks has laid any fertile eggs; 0% means that all the eggs are fertile.

[3] = test system: Boophilus microplus; assay: Boophilus microplus - injection test; assay type: in vivo; details: application rate 20 μg/animal; injected into engorged adult female ticks; laying of fertile eggs, after 7 days
Procedure, shortened: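 Compound dissolved in DMSO (10 mg per 0.5 ml, then diluted with DMSO to test concentration); 1 μl injected into the abdomen of 5 engorged adult female ticks, which are then held in a climate-controlled room. Efficacy judged after 7 days by laying of fertile eggs.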

[4] = logP determination by HPLC on a reversed-phase column (C18), EEC Directive 79/831 Annex V.A8; assay type: physicochemical; details: for logP^a): HPLC-MS method a), Table I-T3; for log P: HPLC-MS, reversed-phase column (C18)
[5] = test system: Lucilia cuprina; assay: Lucilia cuprina test; assay type: in vivo; details: application rate 100 ppm; L1 larvae in minced horsemeat; kill after 2 days
Procedure, shortened: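 About 20 L1 larvae placed on minced horsemeat treated with compound, formulated in DMSO and diluted with water to test concentration. Kill in % scored after 2 days (100% = all larvae dead, 0% = none).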

[6] = test system: Ctenocephalides felis; assay: Ctenocephalides felis - oral test; assay type: in vivo; details: application rate 100 ppm in citrated cattle blood; adult fleas; kill after 2 days
Procedure, shortened: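 About 20 unfed adult cat fleas fed through a parafilm membrane on citrated cattle blood containing compound, dosed from a DMSO stock. Kill in % scored after 2 days; 100% means all fleas dead.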

[7] = test system: Musca domestica; assay: Musca domestica test; assay type: in vivo; details: application rate 100 ppm; adult houseflies; kill after 2 days
Procedure, shortened: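 Compound in DMSO, diluted with water, applied to a sugar-solution sponge; vessels hold 10 adult houseflies. Percent mortality scored after 2 days.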

[8] = test system: Amblyomma hebraeum; assay: Amblyomma hebraeum test (tick nymphs, immersion); assay type: in vivo; details: application rate 100 ppm; tick nymphs immersed for one minute; kill after 42 days
Description: as §2
To produce an appropriate active ingredient formulation, 10 mg of active ingredient are mixed with 0.5 ml of dimethyl sulphoxide, and the concentrate is diluted with water to the desired concentration.
Tick nymphs (Amblyomma hebraeum) are placed into perforated plastic beakers and immersed in the desired concentration for one minute. The ticks are transferred on filter paper into a Petri dish and stored in a climate-controlled cabinet.
After 42 days, the kill in % is determined. 100% means that all of the ticks have been killed; 0% means that none of the ticks have been killed.

[9] = test system: Rhipicephalus sanguineus; assay: Rhipicephalus sanguineus - in vitro contact tests with adult brown dog ticks; assay type: in vivo; details: application rate 5 μg/cm^2, after 48 h (dead or moribund)
Description: Rhipicephalus sanguineus—In Vitro Contact Tests with Adult Brown Dog Ticks
as §1, with “surface” for “surface area”
After the solvent has evaporated off, the tubes are populated with 5-10 adult dog ticks (Rhipicephalus sanguineus), sealed with a perforated plastic lid and incubated in a horizontal position in the dark at room temperature and ambient humidity. After 48 h, efficacy is determined. To this end, the ticks are knocked to the floor of the tube and incubated on a hotplate at 45-50° C. for not more than 5 min. Ticks which remain motionless on the floor or move in such an uncoordinated manner that they are unable to deliberately avoid the heat by climbing upwards are considered to be dead or moribund.
An efficacy of 100% means that all the ticks were dead or moribund. 0% efficacy means that none of the ticks had been harmed.

Compound	efficacy [1] [%]	efficacy [2] [%]	efficacy [3] [%]	logP^a) [4]	efficacy [5] [%]	efficacy [6] [%]	efficacy [7] [%]	efficacy [8] [%]	efficacy [9] [%]	log P [4]	logP ([4]; HPLC, reversed-phase C18, acetonitrile/water with formic acid, 55° C.)
N#CC1(NC(=O)c2cc(-c3cnn(-c4c(Cl)cc(C(F)(C(F)(F)F)C(F)(F)F)cc4C(F)(F)F)c3)ccc2Cl)CC1 [I-T3-57]	100	100	100	4.3	100	100	100	100			
CCc1cc(C(F)(F)C(F)(F)F)cc(C)c1-n1cc(-c2ccc(Cl)c(C(=O)NC3(C#N)CC3)c2)cn1 [I-T3-80]	100	80	100	4.2	100	100	100		80		
Cc1cc(C(F)(C(F)(F)F)C(F)(F)F)cc(Br)c1-n1cc(-c2ccc(Cl)c(C(=O)NC3CC3)c2)cn1 [I-T3-86]	100	100	100	4.5	100	100	100	100			
N#CC1(NC(=O)c2cc(-c3cnn(-c4c(Cl)cc(C(F)(F)F)cc4Cl)c3)cnc2Cl)CC1 [I-T3-95]	100	100	100			100		100		3.1	
CN(C(=O)c1cc(-c2cnn(-c3c(Cl)cc(C(F)(C(F)(F)F)C(F)(F)F)cc3Cl)c2)cnc1Cl)C1CC1 [I-T3-100]	100	100	100		100	100	100	100		4.4	
Cc1cc(C(F)(C(F)(F)F)C(F)(F)F)cc(C)c1-n1cc(-c2cnc(Cl)c(C(=O)N(C)C3CC3)c2)cn1 [I-T3-101]	100	100	100		100	100	100	95		4.4	
CN(C(=O)c1cc(-c2cnn(-c3c(Cl)cc(C(F)(C(F)(F)F)C(F)(F)F)cc3Cl)c2)cnc1Cl)C1(C#N)CC1 [I-T3-102]	100	100	100		100	100	100	90		4.3	
Cc1cc(C(F)(C(F)(F)F)C(F)(F)F)cc(C)c1-n1cc(-c2cnc(Cl)c(C(=O)N(C)C3(C#N)CC3)c2)cn1 [I-T3-103]	100	100	100		100	100	100	90		4.3	
Cc1cc(C(F)(C(F)(F)F)C(F)(F)F)cc(C(F)(F)F)c1-n1cc(-c2cnc(Cl)c(C(=O)N(C)C3CC3)c2)cn1 [I-T3-107]	100	100	100		100	100	100	100		4.5	
Cc1cc(C(F)(C(F)(F)F)C(F)(F)F)cc(C(F)(F)F)c1-n1cc(-c2cnc(Cl)c(C(=O)N(C)C3(C#N)CC3)c2)cn1 [I-T3-111]	100	98	100		100	100	100	80		4.4	
CN(C(=O)c1cc(-c2cnn(-c3c(Cl)cc(C(F)(C(F)(F)F)C(F)(F)F)cc3C(F)(F)F)c2)cnc1Cl)C1(C#N)CC1 [I-T3-116]	100	100	100		100	100	100	100		4.3	
Cc1ncc(-c2cnn(-c3c(Cl)cc(C(F)(C(F)(F)F)C(F)(F)F)cc3C(F)(F)F)c2)cc1C(=O)NC1CC1 [I-T3-124]	100	100	100		100	100	100	100		3.5	
O=C(NC1CC1)c1cc(-c2cnn(-c3c(Br)cc(C(F)(C(F)(F)F)C(F)(F)F)cc3C(F)(F)F)c2)cnc1Cl [I-T3-160]	100	100	100		100	100	100		100	4.0	
N#CC1(NC(=O)c2cc(-c3cnn(-c4c(Br)cc(C(F)(C(F)(F)F)C(F)(F)F)cc4C(F)(F)F)c3)cnc2Cl)CC1 [I-T3-165]	100	100	100		100	100	100		100	3.9	
Cc1cc(C(F)(C(F)(F)F)C(F)(F)F)cc(I)c1-n1cc(-c2ccc(Cl)c(C(=O)NC3CC3)c2)cn1 [I-T3-175]	100	100	100		100	100	100		100	4.5	
Cc1cc(C(F)(C(F)(F)F)C(F)(F)F)cc(I)c1-n1cc(-c2ccc(Cl)c(C(=O)NC3(C#N)CC3)c2)cn1 [I-T3-176]	100	100	100		100	100	100		100	4.4	
Cc1cc(C(F)(C(F)(F)F)C(F)(F)F)cc(C(F)(F)F)c1-c1cc(-c2ccc(Cl)c(C(=O)NC3CC3)c2)on1 [I-T22-5]	100	100	100		100	100	100		100		4.9
